The test system of series [1] is SH-SY5Y cells. Briefly: Intracellular penetration of rhodamine-pentapeptide conjugate (fluorescence microscopy). Type of series: cell-based. The conditions noted are these: rhodamine-peptide conjugate, 4 hours. Here is the method: In order to confirm that the pentapeptide of the present invention penetrates into the nerve cells, SH-SY5Y cells were seeded in a 6-well plate at a density of 3×10^5 cells/well and cultured in a 37° C., 5% CO2 incubator for 24 hours, and then the medium was replaced with serum-free medium. After treatment with the rhodamine-peptide conjugate for 4 hours at each concentration, cells were fixed by treatment with 4% paraformaldehyde, and nuclei were stained using a DAPI staining kit (Invitrogen, USA). Intracellular peptide penetration was observed using a fluorescence microscope. Blue represents the nuclei of cells stained with DAPI, and red represents the ‘rhodamine-pentapeptide’ conjugate.

For series [2] the following is noted: rat, in vivo.
Series [3] has as its target SNARE complex (Homo sapiens, UniProt Q16623). The series can be described thus: Inhibition of SNARE complex formation in nerve cells (Western blot, syntaxin 1a antibody). It counts as cell-based. A general note: In western blotting, separated proteins are transferred to a membrane and probed.

No end group written: not given here.

Chain of SNARE complex (Q16623 whole entry, one chain of several): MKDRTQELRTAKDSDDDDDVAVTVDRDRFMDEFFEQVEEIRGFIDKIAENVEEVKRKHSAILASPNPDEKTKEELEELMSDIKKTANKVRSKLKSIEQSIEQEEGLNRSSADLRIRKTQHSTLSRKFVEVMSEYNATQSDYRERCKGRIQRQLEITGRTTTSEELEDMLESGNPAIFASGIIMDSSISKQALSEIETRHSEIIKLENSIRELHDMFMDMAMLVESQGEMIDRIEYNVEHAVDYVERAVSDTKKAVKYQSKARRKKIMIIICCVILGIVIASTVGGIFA

Regarding KFLIK [pentapeptide, KFLIK], the “penetration into nerve cells” value in series [1] is listed as “penetrated into nerve cells”. Besides, the “penetration into skin tissue” value in series [2] was “penetrated into the muscle layer of the skin tissue and co-localized with the nerve cell marker”.
For botulinum toxin, the SNARE complex formation result in series [3] is recorded as “inhibited”.

Values taken from patent publication US12539264B2, “Composition comprising pentapeptide as active ingredient” (priority 2020, dated 2026).
